Data: ChEMBL document CHEMBL1201862, “PubChem BioAssay data set” (2004)
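Five compound concentrations were applied to cells in 96-well plates for 48 hours; endpoints were derived by simple linear interpolation of the resulting dose-response curve. GI50 is the concentration that inhibits growth by half.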 The source made the active and inactive calls. No stated cut-off is given here; in the data, active = GI50 up to about 1.1 µM and inactive = higher.

Experiments:
Test in all cases: DTP human tumour cell line panel, 48 h
SNB-75 = tested on: SNB-75
IGROV-1 = tested on: IGROV-1
M14 = tested on: M14
TK-10 = tested on: TK-10
KM12 = tested on: KM12
HCT-15 = tested on: HCT-15
SK-MEL-28 = tested on: SK-MEL-28
786-0 = tested on: 786-0
CCRF-CEM = tested on: CCRF-CEM
SF-268 = tested on: SF-268
RPMI-8226 = tested on: RPMI-8226
HCT-116 = tested on: HCT-116
NCI-H23 = tested on: NCI-H23
SF-539 = tested on: SF-539
SK-MEL-5 = tested on: SK-MEL-5
NCI-H226 = tested on: NCI-H226
SR = tested on: SR

| SMILES | GI50 (SNB-75) | GI50 (IGROV-1) | GI50 (M14) | GI50 (TK-10) | GI50 (KM12) | GI50 (HCT-15) | GI50 (SK-MEL-28) | GI50 (786-0) | GI50 (CCRF-CEM) | GI50 (SF-268) | GI50 (RPMI-8226) | GI50 (HCT-116) | GI50 (NCI-H23) | GI50 (SF-539) | GI50 (SK-MEL-5) | GI50 (NCI-H226) | GI50 (SR) |
| --- | --- | --- | --- | --- | --- | --- | --- | --- | --- | --- | --- | --- | --- | --- | --- | --- | --- |
| Cc1cc(NS(=O)(=O)c2ccc(NC(=O)c3ccc(Cl)c4c(Nc5ccc(S(=O)(=O)Nc6cc(C)on6)cc5)c5ccccc5nc34)cc2)no1 | 6.46 µM (inactive) | 21.5 µM (inactive) | 22.2 µM (inactive) | 31.3 µM (inactive) | 19.7 µM (inactive) | 18.7 µM | > 10 µM (inactive) | 16 µM (inactive) | 18.8 µM (inactive) | 13.8 µM (inactive) | 27.5 µM (inactive) | 14.2 µM (inactive) | > 10 µM (inactive) | 14.9 µM (inactive) | 23 µM (inactive) | – | – |
| O=C1O[C@H](C(Cl)(Cl)Cl)N2CCCC12 (stereo partly drawn) | > 100 µM (inactive) | > 100 µM (inactive) | > 100 µM (inactive) | > 100 µM (inactive) | > 100 µM (inactive) | > 100 µM | > 100 µM (inactive) | > 100 µM (inactive) | > 100 µM (inactive) | > 100 µM (inactive) | > 100 µM (inactive) | – | > 100 µM (inactive) | > 100 µM (inactive) | > 100 µM (inactive) | > 100 µM (inactive) | – |
| CC(C)(C)C1(O)Cc2ccccc2C(=O)O1 (stereo not drawn) | > 100 µM (inactive) | > 100 µM (inactive) | > 100 µM (inactive) | > 100 µM (inactive) | > 100 µM (inactive) | > 100 µM | > 100 µM (inactive) | > 100 µM (inactive) | > 100 µM (inactive) | > 100 µM (inactive) | – | > 100 µM (inactive) | > 100 µM (inactive) | > 100 µM (inactive) | > 100 µM (inactive) | > 100 µM (inactive) | > 100 µM (inactive) |
| C1CC2=C(C1)C1=S(S2)SC2=C1CCC2 | > 100 µM (inactive) | > 100 µM (inactive) | > 100 µM (inactive) | > 100 µM (inactive) | > 100 µM (inactive) | > 100 µM | > 100 µM (inactive) | > 100 µM (inactive) | > 100 µM (inactive) | > 100 µM (inactive) | > 100 µM (inactive) | > 100 µM (inactive) | > 100 µM (inactive) | > 100 µM (inactive) | > 100 µM (inactive) | > 100 µM (inactive) | – |
| CCOc1ccc(/N=N/c2ccc3oc(=O)c(C(=O)Nc4ccc(OC)cc4)cc3c2)cc1 | 33.7 µM (inactive) | 23.5 µM (inactive) | > 10 µM (inactive) | 17.1 µM (inactive) | 30.8 µM (inactive) | 6.12 µM | 18.9 µM (inactive) | 21.9 µM (inactive) | 2.36 µM (inactive) | 9.1 µM (inactive) | 11.1 µM (inactive) | 11.3 µM (inactive) | 19.7 µM (inactive) | 20.2 µM (inactive) | 15 µM (inactive) | – | – |
| Cn1c2c(c3ccccc31)CCN(CCCCN1CCN(c3cccc(Cl)c3)CC1)C2=O | 0.0975 µM (active) | 15.9 µM (inactive) | 3.3 µM (inactive) | 11.5 µM (inactive) | – | 11.6 µM | 6.07 µM (inactive) | 13 µM (inactive) | 9.86 µM (inactive) | 16.9 µM (inactive) | 5.66 µM (inactive) | 6.65 µM (inactive) | 12.6 µM (inactive) | 12.8 µM (inactive) | 10.1 µM (inactive) | – | – |
| CN(/N=C/c1ccnc2ccccc12)c1ccc([N+](=O)[O-])cc1[N+](=O)[O-] | 20.7 µM (inactive) | > 100 µM (inactive) | > 100 µM (inactive) | > 100 µM (inactive) | > 100 µM (inactive) | > 100 µM | 87.7 µM (inactive) | 30.6 µM (inactive) | > 100 µM (inactive) | > 100 µM (inactive) | > 100 µM (inactive) | – | 91.6 µM (inactive) | 89.5 µM (inactive) | > 100 µM (inactive) | > 100 µM (inactive) | – |
| O=C(/C=C/c1ccccc1)c1ccc(Cl)cc1Cl | 30.8 µM (inactive) | 18.5 µM (inactive) | 23.2 µM (inactive) | 31.8 µM (inactive) | 15.9 µM (inactive) | 13.1 µM | – | 17.9 µM (inactive) | 7.24 µM (inactive) | 28.4 µM (inactive) | 3.76 µM (inactive) | 11.2 µM (inactive) | 27.5 µM (inactive) | 20.8 µM (inactive) | 14.1 µM (inactive) | 29.9 µM (inactive) | – |
| CC(=O)Oc1c(Br)ccc2cc(C(Br)Br)c(C(=O)c3ccccc3)nc12 | 20.5 µM (inactive) | 29.1 µM (inactive) | 21.2 µM (inactive) | 17.7 µM (inactive) | 19.6 µM (inactive) | 22.8 µM | 15.9 µM (inactive) | 22.6 µM (inactive) | – | 25.7 µM (inactive) | > 10 µM (inactive) | 21.8 µM (inactive) | 20 µM (inactive) | 18.6 µM (inactive) | 19.1 µM (inactive) | 19.7 µM (inactive) | 28.1 µM (inactive) |
| COC(=O)/C(C#N)=C1\NN=NN1CCCN1CCOCC1 | > 100 µM (inactive) | > 100 µM (inactive) | > 100 µM (inactive) | > 100 µM (inactive) | > 100 µM (inactive) | > 100 µM | > 100 µM (inactive) | > 100 µM (inactive) | > 100 µM (inactive) | – | > 100 µM (inactive) | > 100 µM (inactive) | > 100 µM (inactive) | > 100 µM (inactive) | > 100 µM (inactive) | > 100 µM (inactive) | – |
| C=C(C)C1CC[C@]2(C(=O)O)CCC3(C)[C@H](CCC4[C@@]5(C)CC[C@H](OC6OC(CO)C(O)C6OC6OC(C)C(O)C(O)C6O)[C@@](C)(CO)C5CC[C@]43C)C12 (stereo partly drawn) | > 100 µM (inactive) | > 100 µM (inactive) | > 100 µM (inactive) | > 100 µM (inactive) | > 100 µM (inactive) | > 100 µM | > 100 µM (inactive) | > 100 µM (inactive) | > 100 µM (inactive) | > 100 µM (inactive) | – | > 100 µM (inactive) | > 100 µM (inactive) | > 100 µM (inactive) | > 100 µM (inactive) | > 100 µM (inactive) | > 100 µM (inactive) |
| COc1ccc2c(c1)CC1c3c(cc4c(c3-2)OCO4)CCN1C (stereo not drawn) | 22.6 µM (inactive) | 31.7 µM (inactive) | 22.8 µM (inactive) | 21.1 µM (inactive) | 30.9 µM (inactive) | 36.9 µM | 28.8 µM (inactive) | 27.6 µM (inactive) | 23 µM (inactive) | > 10 µM (inactive) | 24.8 µM (inactive) | 19.5 µM (inactive) | 23.8 µM (inactive) | 31.3 µM (inactive) | 16.9 µM (inactive) | 24.6 µM (inactive) | – |
| COc1nc(NC2OCC(OC(C)=O)C(OC(C)=O)C2OC(C)=O)c(/N=C\C=N\c2c(NC3OCC(OC(C)=O)C(OC(C)=O)C3OC(C)=O)nc(OC)n(C)c2=O)c(=O)n1C (stereo not drawn) | > 100 µM (inactive) | > 100 µM (inactive) | > 100 µM (inactive) | > 100 µM (inactive) | > 100 µM (inactive) | > 100 µM | > 100 µM (inactive) | > 100 µM (inactive) | – | > 100 µM (inactive) | > 100 µM (inactive) | > 100 µM (inactive) | > 100 µM (inactive) | > 100 µM (inactive) | > 100 µM (inactive) | – | > 100 µM (inactive) |
| O=S(=O)(O)c1ccc(-c2c3nc(c(-c4ccc(S(=O)(=O)O)cc4)c4ccc([nH]4)c(-c4ccc(S(=O)(=O)O)cc4)c4nc(c(-c5ccc(S(=O)(=O)O)cc5)c5ccc2[nH]5)C=C4)C=C3)cc1 | 17.3 µM (inactive) | > 100 µM (inactive) | 90.6 µM (inactive) | > 100 µM (inactive) | > 100 µM (inactive) | > 100 µM | 16.5 µM (inactive) | > 100 µM (inactive) | > 100 µM (inactive) | 92.5 µM (inactive) | > 100 µM (inactive) | > 100 µM (inactive) | 58.1 µM (inactive) | > 100 µM (inactive) | > 100 µM (inactive) | – | – |
| CC(C)=C1CCC(CN(C)C)C1=O (stereo not drawn) | 0.234 µM (active) | > 100 µM (inactive) | 14.4 µM (inactive) | 17.1 µM (inactive) | 29.7 µM (inactive) | 14.8 µM | 18.2 µM (inactive) | 12.6 µM (inactive) | 8.95 µM (inactive) | 31.5 µM (inactive) | – | 12.9 µM (inactive) | 35.7 µM (inactive) | > 100 µM (inactive) | 15.6 µM (inactive) | – | 12.4 µM (inactive) |
| CC(C)(C)OC(=O)Cc1ccc2c(ccn2Cc2ccccc2)c1 | > 100 µM (inactive) | > 100 µM (inactive) | > 100 µM (inactive) | 79.6 µM (inactive) | 64.3 µM (inactive) | 12.8 µM | > 100 µM (inactive) | 73.8 µM (inactive) | > 100 µM (inactive) | 66.4 µM (inactive) | – | 25.2 µM (inactive) | 44.8 µM (inactive) | 93.5 µM (inactive) | 31.4 µM (inactive) | 35.7 µM (inactive) | – |
| CC(=O)/C=C/c1ccc(C)cc1 | > 100 µM (inactive) | > 100 µM (inactive) | > 100 µM (inactive) | > 100 µM (inactive) | > 100 µM (inactive) | > 100 µM | > 100 µM (inactive) | > 100 µM (inactive) | > 100 µM (inactive) | > 100 µM (inactive) | > 100 µM (inactive) | > 100 µM (inactive) | > 100 µM (inactive) | > 100 µM (inactive) | > 100 µM (inactive) | > 100 µM (inactive) | – |
| O=C(O)CCC1CCc2cccc(OCC(=O)O)c2C1=O (stereo not drawn) | > 100 µM (inactive) | > 100 µM (inactive) | > 100 µM (inactive) | > 100 µM (inactive) | – | > 100 µM | > 100 µM (inactive) | > 100 µM (inactive) | > 100 µM (inactive) | – | > 100 µM (inactive) | > 100 µM (inactive) | > 100 µM (inactive) | > 100 µM (inactive) | > 100 µM (inactive) | – | – |
